{
  "source": "paper PMC12066314",
  "about": "“Apigenin promotes melanogenesis and melanosome transport through the c-KIT/Raf-1/MAPK/CREB pathway in HEMCs” (Frontiers in Pharmacology, 2025)",
  "biological_target": "c-KIT (Homo sapiens, UniProt P10721)",
  "sequence (P10721 26-976)": "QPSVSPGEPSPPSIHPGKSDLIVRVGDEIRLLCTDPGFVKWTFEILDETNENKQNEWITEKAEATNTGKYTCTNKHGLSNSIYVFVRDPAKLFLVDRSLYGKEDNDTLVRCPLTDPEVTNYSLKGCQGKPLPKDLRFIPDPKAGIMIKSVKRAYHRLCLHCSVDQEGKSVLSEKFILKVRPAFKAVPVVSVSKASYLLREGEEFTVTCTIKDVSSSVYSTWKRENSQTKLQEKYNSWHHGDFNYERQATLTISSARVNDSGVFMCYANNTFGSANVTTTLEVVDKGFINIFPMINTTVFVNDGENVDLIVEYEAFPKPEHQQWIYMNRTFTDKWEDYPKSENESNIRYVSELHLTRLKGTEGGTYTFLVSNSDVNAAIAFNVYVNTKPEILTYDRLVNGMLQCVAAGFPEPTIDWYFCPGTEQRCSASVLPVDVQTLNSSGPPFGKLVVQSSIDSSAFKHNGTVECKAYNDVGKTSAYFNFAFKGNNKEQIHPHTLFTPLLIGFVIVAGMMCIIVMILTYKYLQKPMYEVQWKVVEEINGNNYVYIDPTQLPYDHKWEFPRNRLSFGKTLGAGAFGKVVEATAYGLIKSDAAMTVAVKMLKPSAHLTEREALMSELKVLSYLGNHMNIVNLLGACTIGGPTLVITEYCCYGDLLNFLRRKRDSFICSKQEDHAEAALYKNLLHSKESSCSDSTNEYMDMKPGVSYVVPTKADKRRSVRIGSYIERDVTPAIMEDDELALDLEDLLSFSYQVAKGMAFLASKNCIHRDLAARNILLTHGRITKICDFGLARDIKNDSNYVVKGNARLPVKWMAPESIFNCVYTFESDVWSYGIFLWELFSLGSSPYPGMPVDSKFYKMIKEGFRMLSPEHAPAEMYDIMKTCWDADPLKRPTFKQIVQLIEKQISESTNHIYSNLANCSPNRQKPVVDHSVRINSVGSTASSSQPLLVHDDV",
  "assay": "microscale thermophoresis (MST), […] target",
  "assay_type": "binding",
  "data": [
    {"compound": "O=c1cc(-c2ccc(O)cc2)oc2cc(O)cc(O)c12", "note": "[Apigenin]", "values": [
      {"measurement": "Kd", "result": 2600, "unit": "nM"}
    ]}
  ]
}
